Experimental data reported in US10213412B2, “Modulators of CA2+ release-activated CA2+ (CRAC) channels and pharmaceutical uses thereof” (Vivreon Biosciences, LLC, priority 2015, dated 2019).
Read-outs that look alike come from different tables or passages of the source.

Columns and labels:
[1] = target: T1, recombinant human Orai1 and recombinant human STIM1 (Homo sapiens, UniProt Q96D31); test: Ca^2+ signaling assay in HEK293 cells transfected with Orai1 and STIM1 (Fura-2); assay type: cell-based; settings: HEK293 transfected with Orai1/STIM1, 10 μM Compound 1, single cell Fura-2 fluorescence
T1 construct: expressed in transfected cells; host or cells: human embryonic kidney 293 cells
Method: FIG. 8 depicts Compound 1 as a modulator of store-operated Ca^2+ (SOC) channels. The white rectangle represents a 2 mM external Ca^2+ concentration solution, the hashed rectangle represents a 0 mM external Ca2+ concentration solution, the slashed rectangle represents a 0 mM external Ca^2+ concentration solution with 2 μM thapsigargin, the grey rectangle represents 10 μM Compound 1 in a 2 mM external Ca^2+ concentration solution, and the black rectangle represents […] 2-aminoethoxydiphenyl borate in a 2 mM external Ca^2+ concentration solution. Cell #1 and Cell #2 represent two separate human embryonic kidney 293 cells successfully transfected with recombinant human Orai1 and recombinant human STIM1.
Compound 1 was screened for inhibition of Ca^2+ signaling by examining the intracellular Ca^2+ response in the presence of Compound 1 (FIG. 8). First, human embryonic kidney 293 cells were transfected by lipofectamine with recombinant human Orai1 and recombinant human STIM1. Recombinant human Orai1 was genetically tagged with enhanced green fluorescent protein to label successfully transfected cells. Cells were plated on coverslips and loaded with 2 μM of the Ca^2+ indicator dye, Fura-2, to allow for detection of intracellular Ca^2+ concentration. Cellular fluorescence was determined by alternating fluorescent excitation at 340 and 380 nanometers.

[2] = In vivo pharmacokinetics in rat; design: species or system Sprague Dawley rat
Method: Compound 1 was administered p.o. (▪) or i.v. (•) to a nine week old male Sprague Dawley rat (FIG. 6). For survival blood collection, 250-350 μL blood samples were collected via jugular vein (JUGVEIN) cannula at proposed time points per study protocol and recorded. Blood was collected pre-dose and at 15 & 30 min, 1, 2, 4, 12, 24 & 48 hr after Compound 1 administration. Blood was collected into lithium heparin tubes for plasma collection. Calibration standards and study samples were processed for LC/MS/MS analysis by precipitating 40 μL of each sample with two volumes of ice cold Internal Standard Solution (acetonitrile containing 50 ng/mL of dextromethorphan, 5 ng/mL diphenhydramine and 125 ng/mL diclofenac). The precipitated samples were centrifuged at 6100 g for 30 minutes. Following centrifugation, an aliquot of each supernatant was transferred to an autosampler plate and diluted with an equal volume of 0.2% formic acid in water. Processed study samples were analyzed using LC/MS/MS.

MDR1 = test: MDCK-MDR1 permeability assay; assay type: in vitro ADME, canine; settings: dog
Method: Compound 1 was evaluated for permeability across polarized Madin-Darby canine kidney-multidrug resistance protein 1 (MDCK-MDR1) epithelial monolayers. MDCK-MDR1 cells grown in tissue culture flasks were trypsinized, suspended in medium, and the suspensions were applied to wells of a Millipore 96 well Caco-2 plate (FIG. 7). The cells were allowed to grow and differentiate for five days and confluence was confirmed. For Apical to Basolateral (A→B) permeability, Compound 1 was added to the apical (A) side and amount of permeation is determined on the basolateral (B) side; for Basolateral to Apical (B→A) permeability, the Compound 1 was added to the B side and the amount of permeation was determined on the A side and analyzed by LC/MS/MS.

[3] = Concentrations of Compound 1 in mouse plasma and brain after s.c. administration; assay type: in vivo; settings: C57/BL6 mice
Method: Compound 1 was administered s.c. to C57/BL6 mice and plasma and brain samples were processed and analyzed using standard bioanalytical protocols. Three mice were sacrificed at time points: 15 min, 1 hr and 4 hr. Blood was collected into lithium heparin tubes for plasma collection. Brain samples were homogenized prior to extraction using a FastPrep-24 tissue homogenizer. Plasma and brain homogenates were extracted by protein precipitation with acetonitrile containing verapamil as internal standard (IS). After vortexing for 10 min, samples were transferred to a 96 well filter plate and filtered using a centrifuge. Filtrates were analyzed by LC/MS/MS. The compounds were quantified with software using calibration curves. Compound 1 plasma (▪) and brain (•) concentrations are presented.

in vivo = assay type: in vivo, C57/Bl6 mice; settings: C57/Bl6, mouse, in vivo, ip, 5 mg/kg
[4] = test system: experimental autoimmune encephalomyelitis; test: in vivo; assay type: in vivo, C57/Bl6 mice
[5] = test system: Ca^2+ influx in human Jurkat T cells; test: Ca^2+ signaling assay in Jurkat T cells activated with PHA-P (Fluo-4, flow cytometer); assay type: cell-based
Method: (§1) Compound 2 was screened for inhibition of Ca^2+ signaling by examining the intracellular Ca^2+ response in the presence of Compound 2 (FIG. 2). First, the human Jurkat T cells, an immortalized line of human acute T cell lymphoblastic leukemia, were loaded with the 2 μM of the Ca^2+ indicator dye, Fluo-4, to allow for detection of Ca^2+ influx. Jurkat cells were then cultured with Compound 2 and activated with Phytohemagglutinin PHA-P to induce Ca^2+ influx. Immediately after activation, Ca^2+ influx was determined by measuring Jurkat fluorescence using a flow cytometer. Maximal Ca^2+ influx occurred with a 2.9 fold increase in mean Fluo-4 fluorescence intensity compared to an unstimulated control.

primary human T cells [6] = test: Primary human T cell proliferation assay (CFSE dilution); assay type: cell-based; settings: 72 hours
Method: Compound 2 was screened for inhibition of primary human T cell proliferation by quantifying cellular divisions in the presence of Compound 2 (FIG. 3). First, a 96-well plate was coated with 4 μg/mL anti-CD3 antibody (clone: OKT3) in phosphate buffered saline overnight at 4 degrees Celsius. Primary human T cells were then isolated from the peripheral blood of a healthy, consenting donor using an antibody-based human T cell enrichment protocol. Human T cells were then stained with 1.75 μM of carboxyfluorescein succinimidyl ester, to allow for detection of cellular proliferation. Human T cells were then cultured with Compound 2 and activated with immobilized anti-CD3 and 1 μg/mL soluble anti-CD28 (clone: CD28.2) antibodies and 0.2 ng/mL recombinant human IL-2 to induce cellular proliferation through the NFAT and NF-κB transcription factor pathways. Proliferation was assayed through flow cytometric analysis of carboxyfluorescein succinimidyl ester dilution after 72 hours in standard culture conditions. Maximal proliferation occurred with a 3.9 fold increase in activation index compared to an unstimulated control.

Human Jurkat T cells = test: Cancer cell viability assay, Jurkat; assay type: cell-based; settings: 120 hours, flow cytometric light scatter
Method: (§2) Compound 2 was screened for inhibition of cancer cell survival by quantifying cellular death in the presence of Compound 2 (FIG. 4). Human Jurkat T cells (▪), an immortalized line of human acute T cell lymphoblastic leukemia; Ramos B cells (•), an immortalized line of human Burkitt's lymphoma; and primary human T cells (▴) isolated from the peripheral blood of a healthy, consenting donor were cultured in the presence Compound 2 to test for cellular viability and cell death. Cells were cultured in standard culture conditions, and primary human T cells were also activated with 4 μg/mL immobilized anti-CD3 (clone: OKT3) and 1 μg/mL soluble anti-CD28 (clone: CD28.2) antibodies and 0.2 ng/mL recombinant human IL-2. Cell viability was assayed through flow cytometric analysis of cellular light scatter following 72 hours for primary human or 120 hours for Jurkat and Ramos in standard culture conditions. Viable cell percentage was analyzed as the percent decrease of viable cells compared to a control well with no Compound 2 using a standard flow cytometry lymphocyte analysis gate of forward and side scatter.

Ramos B cells = test: Cancer cell viability assay, Ramos; assay type: cell-based, human; settings: 120 hours, flow cytometric light scatter
Method: as §2

primary human T cells [7] = test: Cell viability assay, primary human T cells; assay type: cell-based; settings: primary human T cells from a healthy donor, activated, 72 hours
Method: as §2

[8] = test system: Ca^2+ influx in murine cerebellum CRL-2540 cells (mouse microglia); test: Ca^2+ signaling assay in microglia activated with thapsigargin (Fluo-4); assay type: cell-based
Method: as §1, with “5).” for “2).”, “murine cerebellum CRL-2540” for “human Jurkat T”, “mouse microglia,” for “human acute T cell lymphoblastic leukemia,”, “CRL-2540” for “Jurkat”, “2 μM thapsigargin” for “Phytohemagglutinin PHA-P”, “0.52” for “2.9”

[9] = male, Sprague Dawley, plasma, iv, 10000 ug/kg
[10] = male, Sprague Dawley, plasma, po, 10000 ug/kg

T1 sequence (Q96D31 whole entry): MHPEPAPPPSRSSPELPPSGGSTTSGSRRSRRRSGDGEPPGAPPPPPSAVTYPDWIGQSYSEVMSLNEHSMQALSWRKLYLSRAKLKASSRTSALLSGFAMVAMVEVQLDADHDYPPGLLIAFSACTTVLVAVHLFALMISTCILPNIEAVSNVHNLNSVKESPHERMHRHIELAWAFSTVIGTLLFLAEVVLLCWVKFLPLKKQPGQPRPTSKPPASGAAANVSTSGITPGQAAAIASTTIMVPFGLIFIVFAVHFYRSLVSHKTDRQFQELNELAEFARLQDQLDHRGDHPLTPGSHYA

With `CC(C)(C)c1cc(CCC(=O)c2ccc[nH]2)cc(C(C)(C)C)c1O` [Compound 1, 3-(3,5-di-tert-butyl-4-hydroxyphenyl)-1-(1H-pyrrol-2-yl)propan-1-one] as the compound, how does the “Modulation of store-operated Ca^2+ (SOC) channels” value [1] read?
Its value is “modulates store-operated Ca^2+ (SOC) channels”.

And the AUC(0-inf) [2, 9]?
The AUC(0-inf) was 706 ng·h/mL.

And the AUC(0-t) [2, 9]?
Its AUC(0-t) is 694 ng·h/mL.

And the Cmax [2, 9]?
Its Cmax is 837 ng/mL.

What about the MRT inf [2, 9] of the same compound?
The MRT inf was 1.9 h.

And the Tmax [2, 9]?
Its Tmax is 0.25 h.

What about the clearance [2, 9] of the same compound?
The clearance was 236 mL/min/kg.

What about the half-life ([2]; male, Sprague Dawley, plasma, iv, 10000 ug/kg, i.v., 10000 μg/kg, read-out: Terminal t½ (converted)) of the same compound?
Its half-life is 2.64 h.

What about the Vd ([2]; male, Sprague Dawley, plasma, iv, 10000 ug/kg, i.v., 10000 μg/kg, read-out: VSS) of the same compound?
Its Vd is 26.9 L/kg.

And the AUC(0-inf) [2, 10]?
Its AUC(0-inf) is 747 ng·h/mL.

And the AUC(0-t) [2, 10]?
The AUC(0-t) was 679 ng·h/mL.

What about the Cmax [2, 10] of the same compound?
Its Cmax is 126 ng/mL.

What about the Tmax [2, 10] of the same compound?
The Tmax was 2 h.

And the bioavailability [2, 10]?
The bioavailability was 106%.

What about the half-life ([2]; male, Sprague Dawley, plasma, po, 10000 ug/kg, p.o., 10000 μg/kg, read-out: T½ (converted)) of the same compound?
Its half-life is 3.27 h.

And the “Animal body weight and clinical observations” value ([2]; p.o. or i.v., 10000 μg/kg)?
Its value is “appeared normal”.

What about the efflux ratio (MDR1) of the same compound?
The efflux ratio was 1.6.

What about the Papp A→B (MDR1; Apical to Basolateral) of the same compound?
The Papp A→B was 1 ×10⁻⁶ cm/s.

What about the Papp B→A (MDR1; Basolateral to Apical) of the same compound?
Its Papp B→A is 1.6 ×10⁻⁶ cm/s.

What about the “Animal body weight and clinical observations” value [3] of the same compound?
The value was “appeared normal”.

What about the concentration at 1 h (in vivo; Compound level in the brain) of the same compound?
The concentration at 1 h was 38 ± 4 nM.

What about the concentration at 1 h (in vivo; Compound level in the plasma) of the same compound?
Its concentration at 1 h is 23.3 ± 3.1 nM.

And the “Recovery of animals in the EAE model” value ([4]; 5 mg/kg i.p. daily starting on day −1)?
The value was “enhanced recovery”.

What about the “Neuroprotection (clinical score) compared to vehicle-treated mice” value ([4]; 5 mg/kg i.p. daily, p<0.05) of the same compound?
The value was “significant neuroprotection”.

With `CC(C)(C)c1cc(CCC(=O)c2[nH]c(Cl)c(Cl)c2Cl)cc(C(C)(C)C)c1O` [Compound 2, 3-(3,5-di-tert-butyl-4-hydroxyphenyl)-1-(3,4,5-trichloro-1H-pyrrol-2-yl)propan-1-one] as the compound, how does the IC50 ([5]; Homo sapiens, PHA-P activation, Fluo-4 fluorescence, read-out: IC50 of inhibition of Ca^2+ influx) read?
Its IC50 is 3.78 µM.

And the “Maximal inhibition of Ca^2+ influx, fold increase compared to an unstimulated control” value ([5]; PHA-P, maximal influx 2.9 fold)?
The value was 0.35 fold.

And the “Maximal inhibition of proliferation, fold increase in activation index compared to an unstimulated control” value (primary human T cells [6]; maximal proliferation 3.9 fold)?
Its value is 0.91 fold.

What about the IC50 (primary human T cells [6]; Homo sapiens, T-cell, anti-CD3/anti-CD28/IL-2 activation, read-out: IC50 of inhibition of primary human T cell proliferation) of the same compound?
Its IC50 is 0.671 µM.

What about the “Cell viability in the presence of compound” value (shortened to “Cell viability”) (Human Jurkat T cells) of the same compound?
The value was “decreased”.

And the “Cell viability” value (Ramos B cells)?
Its value is “decreased”.

And the “Cell viability” value (primary human T cells [7])?
The value was “did not decrease”.

What about the “Maximal inhibition of Ca^2+ influx, fold increase compared to an unstimulated control” value ([8]; CRL-2540, thapsigargin, maximal influx 0.52 fold) of the same compound?
The value was 0.19 fold.

And the IC50 ([8]; Mus musculus, CRL-2540 microglia, 2 μM thapsigargin, Fluo-4, read-out: IC50 of inhibition of Ca^2+ influx)?
The IC50 was 10.9 µM.
